A short description of this data set: Human HepG2 cell viability assay in 384 well format. The class given is toxicity, cell-based. Also noted: dose 125 nL, time 70.5 hour; cytotoxicity at 70.5 h: concentration not given beside the values. Particulars: HepG2 cells, read-out: Inhibition.
For `Cc1ccccc1SC1CCN(C(=O)CCCS(N)(=O)=O)CC1`, the cytotoxicity at 70.5 h is -5.95%.
In the case of `Cc1nc(C(=O)N[C@H]2COC[C@@H]2N2CCCCC2)cs1` it was 17.8%; in that of `CCN1CCN(c2ncnc3c2CCN(C(=O)C2CC2)C3)CC1`, 26.2%.
In the case of `CC(NC(=O)COc1ccc(Cl)cc1Cl)c1nncn1C(C)C` (configuration not stated) it was -3.07%.
In the case of `N#Cc1c(N)nc2c(c1-c1c[nH]nc1C1CCCCC1)CC(N)CC2` (configuration not stated) it was 22.4%; in that of `Cc1ccncc1C(=O)N1CC[C@@]2(O)CCN(C3CCCCC3)C[C@H]2C1`, -3.63%; in that of `Cc1ccccc1C(C(=O)N(C)CCc1cnn(C)c1)N(C)C` (configuration not stated), -0.295%.
In the case of `CCN1CCCC1CN(Cc1ccon1)CC1CCN(CCOC)CC1` (configuration not stated), the cytotoxicity at 70.5 h was -9.79%.
`c1cc(CN2CCC(c3nnc4n3CCCCC4)CC2)c2nonc2c1`: the cytotoxicity at 70.5 h was 12.2%.
In the case of `Cc1cc(CNC(=O)C2CC(=O)N(CCN(C)C)C2)cc(C)n1` (configuration not stated) it was 27.5%; in that of `COc1c(F)ccc(C(=O)N2CC[C@H](CO)[C@@H](O)C2)c1F`, -3.48%; in that of `CC(C)OC(C)c1nnc(SCC(=O)O)n1-c1ccc(F)cc1F` (configuration not stated), -6.19%.
Then `O=C1CCC2(CCCN(C(=O)c3ccoc3)C2)CN1CCc1c[nH]cn1` (configuration not stated), with -4.81%.
In the case of `CN(C)C[C@H]1C[C@H](CO)CN(C(=O)c2cc(S(N)(=O)=O)ccc2F)C1` it was -3.55%; in that of `Cc1nc2c(c(=O)n1C)CN(C(=O)C1CCN(C(=O)C3CCC3)CC1)C2`, -1.69%; in that of `Cc1ncsc1CCC(=O)N1CCn2cccc2C1c1cccnc1` (configuration not stated), -3.49%.
With `O=C(NCc1nnc2n1CCCC2)c1cn(-c2ccccc2)nn1`, the cytotoxicity at 70.5 h is -4.64%.
As for `CCc1cc(N[C@@H]2C[C@H]3CC[C@@H]2C3)n2nccc2n1`, the cytotoxicity at 70.5 h is -6.76%.
In the case of `CCc1c(C)sc2ncnc(N3CC[C@@H](N4CCOCC4)[C@H](O)C3)c12`, the cytotoxicity at 70.5 h was -4.12%.
Then `COCCC1CCCCN1Cc1nc(C2CC2)no1` (configuration not stated), with -9.77%; and `O=C(CCCOCc1ccccc1)N1CCCC(c2ncc[nH]2)C1` (configuration not stated), with -22.8%.
Then `CCCSCC(=O)N1CCN(c2ccc(C)cc2)CC1C` (configuration not stated), with -14.9%.
In the case of `COC[C@]1(O)CCN(Cc2cnc(N3CCOCC3)nc2)CC1(C)C` it was -14.6%.
As to `Fc1ccccc1Cc1noc(CN2CCC(N3CCSCC3)CC2)n1`, the cytotoxicity at 70.5 h is -3.88%.
In the case of `Fc1ccc(N2CCN(CCCc3cn[nH]c3)CC2)cc1` it was 12%; in that of `COc1ccnc(CN2CC(=O)N(c3ccc(C)cc3)CC2C)c1OC` (configuration not stated), 16.8%; in that of `Cc1ccc2cc(C3(O)CCN(C(=O)[C@@H]4CCCCN4)CC3)ccc2n1`, -2.74%.
With `CCc1[nH]c2ccc(CNC(=O)c3cnc(N)nc3C)cc2c1C`, the cytotoxicity at 70.5 h is -3.2%.
In the case of `CN(C)C(C(=O)N1CCCN(C(=O)C2CCC2)CC1)c1ccccc1F` (configuration not stated) it was -9.38%; in that of `CCCOCC1CCN(C(=O)Cn2cccc(C(F)(F)F)c2=O)C1` (configuration not stated), 3.49%.
Then `CC(C)(C)CC(=O)N1CCC(n2cc(C3(O)CCCC3)nn2)CC1`, with -7.65%; and `CCOCc1nc(-c2cccc(OC)c2OC)n(C2CCN(C)CC2)n1`, with -1.78%.
Then `CSc1ccccc1-n1ccnc1-c1cn(C2CCNCC2)nn1`, with 2.69%.
As for `COCCCC1CCCN(Cc2c(C)ccc3ncccc23)C1` (configuration not stated), the cytotoxicity at 70.5 h was 6.57%.
Then `CN1CCCC1CCn1ccnc1-c1ccc2ccccc2n1` (configuration not stated), with 1.35%.
With `Cc1nc(C2CCNCC2)cc(N(C)CCc2cn[nH]c2)n1`, the cytotoxicity at 70.5 h is -3.08%.
In the case of `CC(C1CCN(Cc2c(Cl)ccc(O)c2Cl)CC1)N1CCN(C)CC1` (configuration not stated) it was -4.03%.
In the case of `CNc1nc(C(=O)N2CCCC(CO)(CCCOC)C2)cs1` (configuration not stated) it was -4.71%.
Take `Cc1nc2c(c(N3CCC(CN4CCCC4=O)CC3)n1)CCNCC2`: the cytotoxicity at 70.5 h was -5.86%.
Then `CN(Cc1ccccc1)c1ncccc1CNC1CCCC1`, with -1.34%.
Then `CCC1(O)CCCN(c2nc(-c3ccccn3)nc3c2c(C)nn3C)C1` (configuration not stated), with -2.92%; and `CC(C)c1cc(N2CCC3(CC2)CN(C)CCN3C)ncn1`, with -4.93%.
In the case of `Cc1cc(C)n(CC2(CNC(=O)C(c3ccccc3F)N(C)C)CC2)n1` (configuration not stated) it was -5.49%; in that of `CC(=O)c1cccc(C(=O)N2C[C@@H](CN3CCCCCC3)[C@@H](CO)C2)c1`, -5.31%; in that of `Cc1ccc2[nH]c(=O)c(CN(C)Cc3cc(C4CC4)[nH]n3)cc2c1`, 11.1%.
For `CC(C)c1noc(C2CC(=O)N(CCN(C)C)C2)n1` (configuration not stated), the cytotoxicity at 70.5 h is -8.25%.
For the compound `c1ccc(CCN2CCN(C3CCOC4(CCOCC4)C3)CC2)cc1` (configuration not stated), the cytotoxicity at 70.5 h is -5.08%.
As to `CC(NC1CCSCC1)c1ccccc1-n1cccn1` (configuration not stated), the cytotoxicity at 70.5 h is -11.7%.
Then `Cc1nc(CCN2CCC(Oc3ccccc3F)CC2)cs1`, with 9.73%; and `COc1cccc2c1OCC(CNC(=O)CCn1cnnn1)C2` (configuration not stated), with -1.24%.
In the case of `CCCn1cc(C(=O)NC(C)c2c(C)nn(CC)c2C)c(C)n1` (configuration not stated) it was -8.59%; in that of `CN(Cc1nc(Cc2cccc(C(F)(F)F)c2)no1)C1CCCCC1`, -10.4%.
In the case of `CC(C)c1cc(C(=O)NCCN2CCCCC2CO)on1` (configuration not stated) it was -7%.
For `CCc1ccc(-c2cn3c(C(=O)NCC(C)C(=O)NC)csc3n2)cc1` (configuration not stated), the cytotoxicity at 70.5 h is -1.36%.
With `O=c1c(C(F)(F)F)cccn1Cc1nnc(-c2cccnc2)o1`, the cytotoxicity at 70.5 h was -0.729%.
In the case of `O=C(NC1CC1)C1CNCCN1C(=O)CCOc1ccccc1` (configuration not stated) it was -0.757%; in that of `CCN(CC)C(=O)[C@@H]1C[C@H](n2cc(-c3cccc(OC)c3)nn2)CN1`, -3.79%.
Then `Cc1cccc2c(=O)c(C(=O)N3CCCC4(CN(C)C(=O)O4)C3)c[nH]c12` (configuration not stated), with -3.6%; and `Cn1cnc2cc(C(=O)N3CCC(c4ccccc4C(=O)O)C3)cnc21` (configuration not stated), with -8.01%; and `OC1(CNc2ccc(-c3nc(C4CC4)no3)cn2)CCCCC1`, with 22%.
In the case of `CCc1cc(NC2CCN(Cc3ccccc3F)CC2)n2nccc2n1` it was -16.6%; in that of `CN1CCN(Cc2ccccc2Oc2nccc3occc23)CC1`, -1.68%; in that of `O=C1CC2(CCN(C(=O)c3csc(-c4ccccc4)n3)C2)C(=O)N1` (configuration not stated), -5.85%.
Consider `OC1(CN2CCCCC2)CCN(c2cc(C(F)(F)F)ccn2)C1` (configuration not stated), for which the cytotoxicity at 70.5 h is -22.3%.
Then `CCc1ncc(C(=O)N(C)Cc2cc(-c3ccncc3)no2)cn1`, with 35.7%.
Then `CCN(Cc1cccc2c1OCO2)CC1CCCO1` (configuration not stated), with -6.33%.
In the case of `O=C(Nc1ccc(-n2cccn2)cc1)N1CCOCC(O)C1` (configuration not stated) it was -20.9%; in that of `CCOc1ccccc1CC(=O)N1CCCC(c2ncc[nH]2)C1` (configuration not stated), -0.431%; in that of `CC(C)(C)c1cn(C2CCN(C(=O)c3cncnc3)CC2)nn1`, 18%.
For the compound `Cc1ccc(C2(CN3CCN(c4ncccn4)CC3)CCNCC2)nc1`, the cytotoxicity at 70.5 h was -1.1%.
In the case of `Nc1cc(-c2cc(O)cc(C(=O)O)c2)c2cc[nH]c2n1` it was -10.3%; in that of `CCC[C@@H]1CN(C(=O)c2ccccc2-c2ncc[nH]2)C[C@H]1N(C)C`, -2.55%; in that of `CSc1ccc(CCN2CCN([C@H]3CCCC[C@@H]3O)CC2)cc1`, -8.75%.
As for `CN(C)CCCC(=O)N1C[C@H]2CC[C@@H]1CN(Cc1ccccc1)C2`, the cytotoxicity at 70.5 h was -6.09%.
In the case of `O=C(NCC(F)(F)F)C(c1cccnc1)N1CCOCC1` (configuration not stated) it was -5.8%.
In the case of `CCn1nc(CC(C)C)cc1C(=O)N1CCCOC(CN2CCCC2)C1` (configuration not stated) it was -3.36%; in that of `CN(C)[C@H]1CN(C(=O)CCCc2ccc(F)cc2)C[C@@H]1C1CC1`, -7.35%; in that of `COc1cc(NCC(c2ccccn2)N2CCOCC2)ncn1` (configuration not stated), -3.18%.
As to `Cc1nc2c(NC(CC(C)(C)C)c3cccnc3)ncnc2o1` (configuration not stated), the cytotoxicity at 70.5 h was -10.9%.
In the case of `O=C(NCCC1CN(C2CCCC2)CCO1)c1cc(=O)[nH]c(=O)[nH]1` (configuration not stated) it was -11.6%; in that of `Cc1ccc(F)cc1CC(=O)N1CC[C@@]2(O)CCNC[C@H]2C1`, -5.81%; in that of `Cc1ocnc1C(=O)N1CCC(c2nccn2Cc2ccncc2)CC1`, -6.78%.
Turning to `Cc1ccc(-c2ccnc(N[C@H]3COC[C@@H]3N3CCCC3)n2)c(C)n1`, the cytotoxicity at 70.5 h was -10.9%.
In the case of `CC(C)N(C)S(=O)(=O)c1ccc2c(c1)CCN(C(=O)c1cccnn1)C2` it was -13.5%; in that of `Cc1nccnc1N1C[C@H]2CN(C3CCOCC3)C[C@@]2(C(=O)O)C1`, 2.61%.
Then `CCCOC1CCCN(c2nc(COC)nc3c2cnn3C)C1` (configuration not stated), with -19%; and `c1ccc(OCc2noc(CN3CCN(C4CCCC4)CC3)n2)cc1`, with 9.68%; and `CC(NS(C)(=O)=O)C(=O)N(C)Cc1cnn(-c2ccc(F)cc2)c1` (configuration not stated), with 3.12%.
Then `C/C(=C\c1ccco1)CN(C)C(C)Cc1cc(C)ccn1` (configuration not stated), with -0.46%; and `CC(C)c1nccn1CCCNC(=O)c1ccc(-c2cnn(C)c2)nc1`, with -5.24%; and `CCCC(=O)NCC1CCCN(Cc2cc(C)c(C)o2)C1` (configuration not stated), with 0.818%.
As to `Cc1cccc(N2CCC(N3CCC4(CN(C)C(=O)O4)C3)CC2)c1C` (configuration not stated), the cytotoxicity at 70.5 h is -9.4%.
As to `CS(=O)(=O)N1CCOC(CNC(=O)c2cccc(C#N)c2)C1` (configuration not stated), the cytotoxicity at 70.5 h was found to be 3.98%.
Then `CSCCC(O)C(=O)N1CCCN(Cc2cccnc2)CC1` (configuration not stated), with -9.6%; and `CCn1nc(C)c(C(=O)N2C[C@@H](CN(C)CCOC)[C@@H](CO)C2)c1C`, with -6.72%.
Then `CC(C)Cc1nc(CCn2cncn2)n(-c2ccc3c(c2)OCCO3)n1`, with -18%.
For `CCCN1CCN(c2ccc(-c3nc(C)no3)cn2)CC1`, the cytotoxicity at 70.5 h worked out at 13%.
